Results as given in patent publication US20200222400A1, “METHODS FOR THE TREATMENT OF NEUROLOGICAL DISORDERS” (Yumanity Therapeutics, Inc., priority 2019, published 2020).

Assays:
yeast OLE1 = target: T1, yeast OLE1 (Saccharomyces cerevisiae, UniProt P21147); experiment: Growth of yeast surviving solely on yeast OLE1; assay type: cell-based; details: percent of DMSO-treated condition
T1 construct: expressed in transfected cells; host or cells: S. cerevisiae ole1Δ strain (W303 pdr1Δ pdr3Δ background), pRS316 plasmid, TDH3 promoter
T1 sequence (P21147 1-510): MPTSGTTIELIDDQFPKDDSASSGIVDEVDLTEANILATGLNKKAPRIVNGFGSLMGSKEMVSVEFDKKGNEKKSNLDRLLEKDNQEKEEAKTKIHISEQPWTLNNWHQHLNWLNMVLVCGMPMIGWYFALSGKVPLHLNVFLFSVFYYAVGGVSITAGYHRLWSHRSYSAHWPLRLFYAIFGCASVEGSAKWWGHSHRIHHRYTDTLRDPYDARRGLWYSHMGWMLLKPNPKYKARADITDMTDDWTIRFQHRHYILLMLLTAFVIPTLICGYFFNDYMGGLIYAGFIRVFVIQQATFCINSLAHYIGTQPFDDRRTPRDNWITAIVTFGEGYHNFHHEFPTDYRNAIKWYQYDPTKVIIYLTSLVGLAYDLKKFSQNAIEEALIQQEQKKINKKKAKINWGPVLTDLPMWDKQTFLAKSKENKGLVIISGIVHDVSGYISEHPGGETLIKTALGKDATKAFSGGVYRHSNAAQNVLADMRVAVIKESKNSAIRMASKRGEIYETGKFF
Source text: To generate yeast strains expressing SCD1 or SCD5 as the sole desaturase, the human SCD1 and SCD5 genes were cloned from cDNAs (Harvard PlasmID database Clone ID HsCD00340237 for SCD1 and HsCD00342695 for SCD5) into yeast plasmid pRS316 (ATCC 77145) between the yeast TDH3 promoter and the CYC1 terminator. The coding sequence of yeast OLE1 was also cloned into this plasmid). These clones were then transformed into the ole1Δ strain and plated on CSM-Ura media (CSM lacking uracil) with 2% glucose (w/v) and independent colonies were isolated and amplified.
All compound profiling experiments were performed using the same basic protocol. Different genetic backgrounds (e.g., gene deletions) or conditions (e.g., addition of oleic and palmitoleic acid) were replaced as indicated below.
Compound stocks (10 mM in 100% DMSO) were arrayed into 384 round well, v-bottom polypropylene plates and diluted according to indicated dilution factors. Compound administration was performed in two separate steps. First, 15 μL of CSM-Galactose (induces expression of toxic protein) was dispensed into clear 384 well assay plates using a MULTIDROP™ Combi reagent dispenser. The diluted compound stock plates were then applied to the assay plates using an automated workstation (Perkin Elmer JANUS™) outfitted with a 384 pin tool containing slotted pins that deliver 100 nL of compound. The cultures described above were then diluted to a 2× concentration (0.03 and 0.08 for alpha-synuclein and ApoE, final OD600 of 0.015 and 0.04) in CSM-Galactose. For wild-type and Ole1/SCD1/SCD5 plasmid-containing strains, the 2× cell density was 0.02. In all experiments, 15 μL culture was then dispensed into the pinned assay plate to achieve 30 μL of the 1×OD600 culture and a top drug concentration of […]. For 96-well assays (FIGS. 2A and 2B), compound dilutions in DMSO were generated in 96 well plates and 1 μL was manually pipetted into 96 well clear bottom assay plates.
For experiments using a plasmid-borne copy of Ole1, SCD1, or SCD5 (FIGS. 4B, 7, and 8), media lacking uracil (SX-Ura, where X is glucose, raffinose, or galactose), was used for all steps of the compound profiling protocol to ensure its maintenance throughout the assay.
After yeast delivery, assay plates were incubated under humidified conditions at 30° C. for 24 to 40 h. ApoE4 rescue experiments were stopped at 24 h, aSyn experiments at 40 h, Ole1 at 24 h, and SCD1/SCD5 at 40 h. The growth of yeast was monitored by reading the OD600 of each well using a microplate reader (Perkin Elmer EnVision™). For model rescue experiments, raw data were processed by background subtracting and calculating a fold-change relative to DMSO control [(EXP−0.035)/(DMSO−0.035)—where 0.035 is the OD600 contributed by an empty well containing 30 μL of media alone]. For growth inhibition of wild-type cells, raw data were processed by background subtracting and converting values to a percent of the nontreated condition for that strain [(EXP−0.035)/(DMSO−0.035)×100%].

[1] = test system: alpha-synuclein transfected U2OS cells; experiment: U2OS ATP assay (alpha-synuclein toxicity); assay type: cell-based, human; details: 72 h, titration
Procedure: U2OS cells were trypsinized using 0.25% trypsin-EDTA (Thermo Fisher) for 5 min at 37° C. followed by centrifugation at 800 rpm for 5 min at room temperature. Cell pellets were re-suspended in SE solution (Lonza Biologics, Inc.) at a density of […]. Alpha-synuclein wild-type or empty control (pcDNA) plasmids were transfected at a ratio of […] per 1,000,000 cells. For genetic modifier studies, mRab1a was titrated at various concentrations in the presence of SNCA plasmids. Nucleofection was performed using 4D-NUCLEOFECTOR™ System (Lonza Biosciences, Inc.) under program code CM130 in either 20 μL Nucleocuvette™ strips or 100 μl single Nucleocuvettes™. Cells recovered at room temperature for 10-15 minutes after nucleofection before further handling. Pre-warmed medium was added and cells were thoroughly but gently mixed to a homogenous suspension before plating. Cells were seeded at 2×10^4 cells/100 μl/well into 96 well PLD-coated white plates (Corning, Inc.) using a customized semi-automated pipetting program (VIAFLO 384/96, Integra Biosciences).
Powders of reference SCD inhibitors (CAY10566, A939572 and MF-438) were resuspended and serial diluted in DMSO. […] ATP content was then measured using the CellTiter-Glo® kit (Promega) with luminescence signals measured on an EnVision multimode plate reader (Perkin Elmer).

Cc1nnc(-c2ccc(N3CCC(Oc4cc(F)ccc4Cl)CC3)nn2)o1 [CAY10566]
growth inhibition of yeast expressing OLE1 (yeast OLE1): resistant
cellular ATP levels [1]: significantly reversed alpha-synuclein-dependent decreases in ATP levels in a concentration-dependent fashion
